This is an account of results in patent publication US8871753B2, “Macrocyclic compounds and their use as kinase inhibitors” (Incyte Corporation, priority 2008, dated 2014).

Where only a bound is given, the exact number is not on record here.

What all share (type): biochemical
Assay [1] has as its target T1, human JAK1 (a.a. 837-1142) (Homo sapiens, UniProt P23458).
T1 construct: human JAK1 (a.a. 837-1142); His tag (N); made in house; host or cells: insect cells (baculovirus)
As to the kind of experiment: In vitro JAK kinase assay (HTRF, phosphorylation of a biotinylated peptide), JAK1. The conditions noted are these: Table B1; read-out: JAK1 IC50. A digest of the protocol: (§1)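 Kinase activity was measured as phosphorylation of a biotinylated peptide, with ATP at 90 μM for JAK1, 30 μM for JAK2 and 3 μM for JAK3. Reactions ran 1 hr at room temperature, were stopped with EDTA plus SA-APC and Eu-Py20, and were read by HTRF after 40 minutes of antibody binding.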

Assay [2] concerns the target T2, human JAK2 (a.a. 828-1132) (Homo sapiens, UniProt O60674).
T2 construct: JAK2 (a.a. 828-1132); His tag (N); made in house; host or cells: insect cells (baculovirus)
Kind of assay: In vitro JAK kinase assay (HTRF, phosphorylation of a biotinylated peptide), JAK2. The settings on record: Table B1. A digest of the protocol: as §1

Assay [3] concerns the target T3, human JAK3 (a.a. 781-1124) (Homo sapiens, UniProt P52333).
T3 construct: JAK3 (a.a. 781-1124); His tag (N); made in house; host or cells: insect cells (baculovirus)
As to the kind of experiment: In vitro JAK kinase assay (HTRF, phosphorylation of a biotinylated peptide), JAK3. The settings on record: Table B1. A digest of the protocol:
as §1

The target of assay [4] is TYK2 (Homo sapiens, UniProt P29597). As to the kind of experiment: TYK2 kinase inhibition (Table A1). The conditions noted are these: Table B1.
Assay [5] concerns the target T4, Recombinant Human Anaplastic Lymphoma Kinase (Homo sapiens, UniProt Q9UM73).
T4 construct: purchased Invitrogen, Carlsbad, Calif
Kind of assay: ALK HTRF kinase assay. The settings on record: compound at a concentration of 500 nM or 1 mM (not specified); cells shown as percentage. Put shortly: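 Compounds were incubated with recombinant human ALK and a biotin-tagged peptide substrate. Product was captured with streptavidin-APC and probed with a europium anti-phosphotyrosine antibody, and plates were read for time-resolved fluorescence. Dose-response data were fitted to derive IC50.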

T3 sequence (P52333 781-1124): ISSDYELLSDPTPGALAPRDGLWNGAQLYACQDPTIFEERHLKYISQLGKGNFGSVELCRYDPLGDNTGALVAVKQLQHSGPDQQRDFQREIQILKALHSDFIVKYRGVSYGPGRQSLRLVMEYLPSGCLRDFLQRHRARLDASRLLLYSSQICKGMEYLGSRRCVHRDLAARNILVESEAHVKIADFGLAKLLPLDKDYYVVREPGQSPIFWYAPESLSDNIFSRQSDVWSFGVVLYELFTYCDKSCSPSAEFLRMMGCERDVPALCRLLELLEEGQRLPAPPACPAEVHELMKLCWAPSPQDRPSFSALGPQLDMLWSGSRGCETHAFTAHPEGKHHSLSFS
T2 sequence (O60674 828-1132): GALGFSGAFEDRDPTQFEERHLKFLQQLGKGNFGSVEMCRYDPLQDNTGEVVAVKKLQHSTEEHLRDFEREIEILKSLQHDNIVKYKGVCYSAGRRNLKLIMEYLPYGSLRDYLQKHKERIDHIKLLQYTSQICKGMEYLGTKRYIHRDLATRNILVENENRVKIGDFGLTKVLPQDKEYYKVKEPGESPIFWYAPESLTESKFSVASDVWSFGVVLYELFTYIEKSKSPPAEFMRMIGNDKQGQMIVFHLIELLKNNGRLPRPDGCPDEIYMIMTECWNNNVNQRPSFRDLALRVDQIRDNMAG
T1 sequence (P23458 849-1154): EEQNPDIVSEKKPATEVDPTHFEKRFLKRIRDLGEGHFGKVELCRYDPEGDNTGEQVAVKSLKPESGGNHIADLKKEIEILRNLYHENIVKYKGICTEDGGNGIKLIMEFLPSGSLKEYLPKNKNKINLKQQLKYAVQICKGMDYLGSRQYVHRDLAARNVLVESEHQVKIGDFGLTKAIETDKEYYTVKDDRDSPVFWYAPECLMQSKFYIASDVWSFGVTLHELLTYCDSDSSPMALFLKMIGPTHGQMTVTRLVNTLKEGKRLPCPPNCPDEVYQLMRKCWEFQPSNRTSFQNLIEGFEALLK
T4 sequence (Q9UM73 19-1620): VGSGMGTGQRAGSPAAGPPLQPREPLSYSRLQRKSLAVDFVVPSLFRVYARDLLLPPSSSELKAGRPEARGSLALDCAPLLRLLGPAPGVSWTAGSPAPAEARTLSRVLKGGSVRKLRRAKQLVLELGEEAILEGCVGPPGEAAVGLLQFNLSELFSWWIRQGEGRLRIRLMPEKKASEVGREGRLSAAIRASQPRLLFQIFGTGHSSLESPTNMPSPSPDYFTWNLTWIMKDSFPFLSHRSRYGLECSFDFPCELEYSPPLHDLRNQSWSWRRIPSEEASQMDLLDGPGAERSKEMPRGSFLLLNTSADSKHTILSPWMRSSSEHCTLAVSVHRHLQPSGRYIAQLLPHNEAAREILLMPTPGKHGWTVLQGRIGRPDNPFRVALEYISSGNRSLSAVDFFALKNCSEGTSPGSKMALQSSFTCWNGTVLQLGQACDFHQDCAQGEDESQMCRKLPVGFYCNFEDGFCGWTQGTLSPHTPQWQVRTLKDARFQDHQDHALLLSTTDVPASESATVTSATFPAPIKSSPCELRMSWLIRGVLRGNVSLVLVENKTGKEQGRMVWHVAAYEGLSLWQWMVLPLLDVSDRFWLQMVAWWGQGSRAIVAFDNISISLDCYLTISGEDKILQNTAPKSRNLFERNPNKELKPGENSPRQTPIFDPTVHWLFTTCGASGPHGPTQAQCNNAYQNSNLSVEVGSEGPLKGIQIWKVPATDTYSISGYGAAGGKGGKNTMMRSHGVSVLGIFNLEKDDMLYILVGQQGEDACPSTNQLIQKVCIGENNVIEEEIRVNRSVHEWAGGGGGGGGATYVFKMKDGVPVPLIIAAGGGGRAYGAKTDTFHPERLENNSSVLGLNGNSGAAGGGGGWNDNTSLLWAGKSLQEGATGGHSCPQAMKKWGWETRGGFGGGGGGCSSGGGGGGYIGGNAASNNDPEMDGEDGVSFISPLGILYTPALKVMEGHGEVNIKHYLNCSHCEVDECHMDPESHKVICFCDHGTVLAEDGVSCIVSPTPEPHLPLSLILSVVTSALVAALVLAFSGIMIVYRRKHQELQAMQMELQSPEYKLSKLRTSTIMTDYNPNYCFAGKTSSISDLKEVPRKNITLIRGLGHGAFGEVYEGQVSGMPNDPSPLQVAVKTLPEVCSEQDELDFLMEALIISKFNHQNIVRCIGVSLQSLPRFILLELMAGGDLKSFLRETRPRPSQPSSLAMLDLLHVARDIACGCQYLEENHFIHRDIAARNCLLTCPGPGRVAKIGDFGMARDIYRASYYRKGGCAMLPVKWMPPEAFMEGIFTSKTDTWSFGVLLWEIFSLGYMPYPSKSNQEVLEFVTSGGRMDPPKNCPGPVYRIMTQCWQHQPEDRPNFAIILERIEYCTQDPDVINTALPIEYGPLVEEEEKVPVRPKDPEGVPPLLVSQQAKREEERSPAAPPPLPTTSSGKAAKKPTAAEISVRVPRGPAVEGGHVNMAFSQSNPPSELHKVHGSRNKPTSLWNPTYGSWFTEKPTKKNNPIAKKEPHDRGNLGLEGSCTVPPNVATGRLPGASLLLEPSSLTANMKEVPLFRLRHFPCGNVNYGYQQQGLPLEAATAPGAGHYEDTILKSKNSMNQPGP
TYK2, sequence (P29597 whole entry): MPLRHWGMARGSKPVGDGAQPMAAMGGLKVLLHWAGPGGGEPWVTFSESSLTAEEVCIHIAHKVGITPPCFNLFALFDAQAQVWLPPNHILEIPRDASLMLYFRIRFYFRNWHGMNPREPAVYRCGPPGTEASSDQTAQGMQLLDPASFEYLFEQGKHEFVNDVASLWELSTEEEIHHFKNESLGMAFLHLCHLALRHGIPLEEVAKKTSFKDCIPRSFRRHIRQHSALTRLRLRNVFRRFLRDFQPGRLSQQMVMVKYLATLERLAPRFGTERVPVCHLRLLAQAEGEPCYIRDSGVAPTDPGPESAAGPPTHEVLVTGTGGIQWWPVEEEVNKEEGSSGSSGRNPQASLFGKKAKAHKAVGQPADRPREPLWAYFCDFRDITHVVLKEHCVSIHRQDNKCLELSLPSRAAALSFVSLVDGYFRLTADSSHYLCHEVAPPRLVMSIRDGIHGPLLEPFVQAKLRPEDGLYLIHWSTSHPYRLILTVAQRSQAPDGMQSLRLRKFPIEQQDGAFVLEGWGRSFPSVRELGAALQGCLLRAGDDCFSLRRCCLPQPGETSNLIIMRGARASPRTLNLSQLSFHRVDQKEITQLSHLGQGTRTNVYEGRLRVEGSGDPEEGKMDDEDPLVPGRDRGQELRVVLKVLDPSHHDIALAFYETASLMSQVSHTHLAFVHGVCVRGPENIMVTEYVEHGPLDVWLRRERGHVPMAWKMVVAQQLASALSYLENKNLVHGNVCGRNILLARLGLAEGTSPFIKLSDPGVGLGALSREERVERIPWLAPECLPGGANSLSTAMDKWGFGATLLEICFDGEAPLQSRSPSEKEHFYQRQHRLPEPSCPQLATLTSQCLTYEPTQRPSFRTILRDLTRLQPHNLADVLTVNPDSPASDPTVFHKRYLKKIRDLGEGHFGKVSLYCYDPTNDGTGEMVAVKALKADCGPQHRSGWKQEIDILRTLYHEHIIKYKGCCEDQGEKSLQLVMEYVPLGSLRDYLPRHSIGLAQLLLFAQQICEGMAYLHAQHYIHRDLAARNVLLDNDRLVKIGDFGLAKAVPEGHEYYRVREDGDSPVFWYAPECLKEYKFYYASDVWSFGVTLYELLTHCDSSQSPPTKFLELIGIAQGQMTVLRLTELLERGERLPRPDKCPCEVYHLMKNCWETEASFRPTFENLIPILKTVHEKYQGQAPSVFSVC

Take `Cn1ccc(C(=O)N2CC[C@H](NC(=O)Nc3ccc4cc3CCc3cncc(c3)Nc3ncc(Cl)c(n3)N4)C2)n1` [Example B272, N-[6-Chloro-2,4,8,18,22-pentaazatetracyclo[14.3.1.1(3,7).1(9,13)]docosa-1(20),3(22),4,6,9(21),10,12,16,18-nonaen-12-yl]-N′-{(3S)-1-[(1-methyl-1H-pyrazol-3-yl)carbonyl]pyrrolidin-3-yl}urea bis(trifluoroacetate)]: the IC50 was 14 nM in assay [1], 316 nM in assay [2], greater than 10 µM in assay [3] and 575 nM in assay [4]. Besides, the “ALK % of inhibition at a concentration of 500 nM or 1 mM” value (“ALK % of inhibition” below) in assay [5] worked out at 23%.

With `Cc1ncoc1C(=O)N1CC[C@H](NC(=O)Nc2ccc3cc2CCc2cncc(c2)Nc2ncc(Cl)c(n2)N3)C1` [Example B273, N-[6-Chloro-2,4,8,18,22-pentaazatetracyclo[14.3.1.1(3,7).1(9,13)]docosa-1(20),3(22),4,6,9(21),10,12,16,18-nonaen-12-yl]-N′-{(3S)-1-[(4-methyl-1,3-oxazol-5-yl)carbonyl]pyrrolidin-3-yl}urea bis(trifluoroacetate)], the IC50 in assay [1] was 117 nM; in assay [2], 1630 nM; in assay [3], greater than 10 µM; in assay [4], 3830 nM. Also, the “ALK % of inhibition” value in assay [5] was 3.2%.

As to `Cc1noc(C)c1C(=O)N1CC[C@H](NC(=O)Nc2ccc3cc2CCc2cncc(c2)Nc2ncc(Cl)c(n2)N3)C1` [Example B274, N-[6-chloro-2,4,8,18,22-pentaazatetracyclo[14.3.1.1(3,7).1(9,13)]docosa-1(20),3(22),4,6,9(21),10,12,16,18-nonaen-12-yl]-N′-{(3S)-1-[(3,5-dimethylisoxazol-4-yl)carbonyl]pyrrolidin-3-yl}urea bis(trifluoroacetate)], the IC50 was 60 nM in assay [1], 192 nM in assay [2], greater than 10 µM in assay [3] and 325 nM in assay [4]. Besides, the “ALK % of inhibition” value in assay [5] was found to be 18%.

Consider `O=C(Nc1ccc2cc1CCc1cncc(c1)Nc1ncc(Cl)c(n1)N2)N[C@H]1CCN(c2nc3cccnc3o2)C1` [Example B275, N-[6-Chloro-2,4,8,18,22-pentaazatetracyclo[14.3.1.1(3,7).1(9,13)]docosa-1(20),3(22),4,6,9(21),10,12,16,18-nonaen-12-yl]-N′-[(3S)-1-[1,3]oxazolo[5,4-b]pyridin-2-ylpyrrolidin-3-yl]urea tris(trifluoroacetate)], for which the IC50 in assay [1] is 14 nM; in assay [2] it was 129 nM; in assay [3] it was greater than 10 µM; in assay [4], 348 nM. In assay [5], the “ALK % of inhibition” value is given as 9.8%.

For `Cc1ccnc(Nc2ccc3cc2CCc2cccc(c2)Nc2ncc(Cl)c(n2)N3)n1` [Example B276, 6-Chloro-N-(4-methylpyrimidin-2-yl)-2,4,8,22-tetraazatetracyclo[14.3.1.1(3,7).1(9,13)]docosa-1(20),3(22),4,6,9(21),10,12,16,18-nonaen-12-amine bis(trifluoroacetate)], the IC50 in assay [1] was found to be 6.5 nM; in assay [2] it was 11 nM; in assay [3], 1.17 µM; in assay [4] it was 34 nM. Further, the “ALK % of inhibition” value in assay [5] is reported as 22%.

Take `Oc1ccnc(Nc2ccc3cc2CCc2cccc(c2)Nc2ncc(Cl)c(n2)N3)n1` [Example B277, 2-{[6-Chloro-2,4,8,22-tetraazatetracyclo[14.3.1.1(3,7).1(9,13)]docosa-1(20),3(22),4,6,9(21),10,12,16,18-nonaen-12-yl]amino}pyrimidin-4-ol bis(trifluoroacetate)]: the IC50 is 4.8 nM in assay [1], 5.9 nM in assay [2], 0.359 µM in assay [3] and 62 nM in assay [4]. In addition, the “ALK % of inhibition” value in assay [5] is on record as 54%.
